Patent US5773464A, “C-10 epoxy taxanes” (Bristol-Myers Squibb Company, priority 1997, dated 1998)
Where two headings read alike, the source gives them in different places.

System: HCT-116 human colon carcinoma cells
Assay: Cytotoxicity assay (MTS), 72 hour exposure
Format: cell-based
Conditions: HCT-116, 72 h, read-out: Cytotoxicity Assay IC50 (nM) against HCT 116 Human colon tumor cell line
Method: Cytoxicity was assessed in HCT-116 human colon carcinoma cells by MTS (3-(4,5-dimethylthiazol-2-yl)-5-(3-carboxymethoxyphenyl)-2-(4-sulphenyl)-2H-tetrazolium, inner salt) assay as reported in T. L. Riss, et. al., "Comparison of MTT, XTT, and a novel tetrazolium compound MTS for in vitro proliferation and chemosensitivity assays.," Mol. Biol. Cell 3 (Suppl.):184a, 1992. Cells were plated at 4,000 cell/well in 96 well microtiter plates and 24 hours later drugs were added and serial diluted. The cells were incubated at 37° form 72 hours at which time the tetrazolium dye, MTS at 333 μg/ml (final concentration), in combination with the electron coupling agent phenazine methosulfate at 25 μM (final concentration) was added. A dehydrogenase enzyme in live cells reduces the MTS to a form that absorbs light at […] which can be quantitated spectrophotometrically. The greater the absorbance the greater the number of live cells. The results are expressed as an IC50, which is the drug concentration required to inhibit cell proliferation (i.e. absorbance at 450 nm) to 50% of that of untreated control cells. The IC50 values for compounds evaluated in this assay are evaluated in Table I.
^1 Cytoxicity was determined after a 72 hour exposure by MTS assay.

[1] = 72 hour exposure, MTS assay, test comparing Ie with paclitaxel, run on a different day

CC(=O)O[C@H]1C(=O)[C@@]2(C)[C@H]([C@H](OC(=O)c3ccccc3)[C@]3(O)C[C@H](OC(=O)[C@H](O)[C@@H](NC(=O)c4ccccc4)c4ccccc4)C(C)=C1C3(C)C)[C@]1(OC(C)=O)CO[C@@H]1C[C@@H]2O [paclitaxel]
IC50 (72 hour exposure, MTS assay, test comparing Ia with paclitaxel): 2.9 nM
IC50 [1]: 1 nM

CC(=O)O[C@@]12CO[C@@H]1C[C@H](O)[C@@]1(C)C(=O)C3(CO3)C3=C(C)[C@@H](OC(=O)[C@H](O)[C@@H](NC(=O)c4ccccc4)c4ccccc4)C[C@@](O)([C@@H](OC(=O)c4ccccc4)[C@H]21)C3(C)C (stereo partly shown) [Compound Ia]
IC50: 2 nM

COCO[C@H]1C[C@H]2OC[C@@]2(OC(C)=O)[C@H]2[C@H](OC(=O)c3ccccc3)[C@]3(O)C[C@H](OC(=O)[C@H](O)[C@@H](NC(=O)c4ccccc4)c4ccccc4)C(C)=C(C4(CO4)C(=O)[C@]12C)C3(C)C (stereo partly shown) [Compound Ie]
IC50 [1]: 1.5 nM
